Data published in PubChem BioAssay (NCI).
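A five-concentration, 48-hour dose response in 96-well plates underlies each endpoint, interpolated linearly between surrounding concentrations. The concentration for 50% growth inhibition is given as GI50. The concentration for full growth arrest is given as TGI.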

Tests used:
Test in all cases: DTP human tumour cell line panel, 48 h
[1] = test system: HCT-116 colon
[2] = test system: OVCAR-5 ovarian
[3] = test system: OVCAR-8 ovarian
[4] = test system: UACC-257 melanoma
[5] = test system: SF-268 CNS
[6] = test system: SF-539 CNS
[7] = test system: TK-10 renal
[8] = test system: HCT-15 colon
[9] = test system: SK-MEL-5 melanoma
[10] = test system: OVCAR-4 ovarian
[11] = test system: M14 melanoma
[12] = test system: IGROV1 ovarian
[13] = test system: SNB-19 CNS
[14] = test system: HOP-62 NSCLC
[15] = test system: MOLT-4 leukemia
[16] = test system: HS 578T breast
[17] = test system: KM12 colon
[18] = test system: SK-MEL-28 melanoma
[19] = test system: K-562 leukemia
[20] = test system: RPMI-8226 leukemia
[21] = test system: UO-31 renal
[22] = test system: SK-MEL-2 melanoma
[23] = test system: U251 CNS
[24] = test system: NCI-H23 lung
[25] = test system: SW-620 colon
[26] = test system: A549 NSCLC
[27] = test system: PC-3 prostate
[28] = test system: MDA-MB-231 breast
[29] = test system: SR leukemia
[30] = test system: HOP-92 NSCLC
[31] = test system: ACHN renal
[32] = test system: CAKI-1 renal
[33] = test system: NCI-H460 lung
[34] = test system: NCI-H226 lung
[35] = test system: CCRF-CEM leukemia
[36] = test system: MCF7 breast
[37] = test system: SF-295 CNS
[38] = test system: NCI/ADR-RES ovarian
[39] = test system: DU-145 prostate
[40] = test system: SK-OV-3 ovarian
[41] = test system: LOX IMVI melanoma
[42] = test system: OVCAR-3 ovarian
[43] = test system: 786-0 renal
[44] = test system: HCC-2998 colon
[45] = test system: SN12C renal
[46] = test system: UACC-62 melanoma
[47] = test system: A498 renal
[48] = test system: HT29 colon
[49] = test system: SNB-75 CNS
[50] = test system: RXF 393 renal
[51] = test system: NCI-H522 lung
[52] = test system: BT-549 breast
[53] = test system: MDA-MB-435
[54] = test system: EKVX NSCLC
[55] = test system: HL-60(TB) leukemia
[56] = test system: T-47D breast
[57] = test system: MALME-3M melanoma

## COc1cc(OC)cc(-c2n[nH]nc2-c2ccc3c(c2)OCO3)c1
[1]
  GI50: 181 nM
  TGI: 15.6 µM
[2]
  GI50: 1470 nM
  TGI: > 100000 nM
[3]
  GI50: 512 nM
  TGI: 31.3 µM
[4]
  GI50: 18.2 µM
  TGI: 70.4 µM
[5]
  GI50: 2370 nM
  TGI: > 100000 nM
[6]
  GI50: 181 nM
  TGI: 546 nM
[7]
  GI50: 17.6 µM
  TGI: > 100000 nM
[8]
  GI50: 125 nM
  TGI: > 100000 nM
[9]
  GI50: 168 nM
  TGI: 11.9 µM
[10]
  GI50: 763 nM
  TGI: > 100000 nM
[11]
  GI50: 94.8 nM
  TGI: 12 µM
[12]
  GI50: 432 nM
  TGI: > 100 µM
[13]
  GI50: 501 nM
  TGI: > 100000 nM
[14]
  GI50: 336 nM
  TGI: > 100000 nM
[15]
  GI50: 572 nM
  TGI: 51.8 µM
[16]
  GI50: 442 nM
  TGI: > 100000 nM
[17]
  GI50: 70 nM
  TGI: 11.9 µM
[18]
  GI50: 4440 nM
  TGI: 43.5 µM
[19]
  GI50: 49.6 nM
  TGI: > 100000 nM
[20]
  GI50: 326 nM
  TGI: 22.1 µM
[21]
  GI50: 661 nM
  TGI: 72.7 µM
[22]
  GI50: 245 nM
  TGI: 55.7 µM
[23]
  GI50: 302 nM
  TGI: 11.2 µM
[24]
  GI50: 768 nM
  TGI: > 100000 nM
[25]
  GI50: 105 nM
  TGI: > 100000 nM
[26]
  GI50: 289 nM
  TGI: 50.9 µM
[27]
  GI50: 255 nM
  TGI: 43.7 µM
[28]
  GI50: 529 nM
  TGI: 31.5 µM
[29]
  GI50: 43.6 nM
  TGI: 11.6 µM
[30]
  GI50: 122 nM
  TGI: 1590 nM
[31]
  GI50: 705 nM
  TGI: > 100000 nM
[32]
  GI50: 316 nM
  TGI: > 100000 nM
[33]
  GI50: 335 nM
  TGI: 28.7 µM
[34]
  GI50: 5.15 µM
  TGI: > 100 µM
[35]
  GI50: 282 nM
  TGI: > 100000 nM
[36]
  GI50: 76.8 nM
  TGI: > 100 µM
[37]
  GI50: 98.9 nM
  TGI: 3610 nM
[38]
  GI50: 84.9 nM
  TGI: 24 µM
[39]
  GI50: 346 nM
  TGI: > 100000 nM
[40]
  GI50: 486 nM
  TGI: 93.2 µM
[41]
  GI50: 545 nM
  TGI: 87.1 µM
[42]
  GI50: 74.5 nM
  TGI: 378 nM
[43]
  GI50: 618 nM
  TGI: 63.5 µM
[44]
  GI50: 2150 nM
  TGI: 24.6 µM
[45]
  GI50: 2140 nM
  TGI: > 100000 nM
[46]
  GI50: 3090 nM
  TGI: 30.8 µM
[47]
  GI50: 343 nM
  TGI: 9.32 µM
[48]
  GI50: 392 nM
  TGI: 12.5 µM

## CCSc1sc(-c2ccc(C)cc2)nc1[P+](c1ccccc1)(c1ccccc1)c1ccccc1
[1]
  GI50: 252 nM
  TGI: 1.17 µM
[2]
  GI50: 376 nM
  TGI: 1560 nM
[49]
  GI50: 192 nM
  TGI: 802 nM
[3]
  GI50: 313 nM
  TGI: 1.89 µM
[4]
  GI50: 0.294 µM
  TGI: 1.05 µM
[5]
  GI50: 328 nM
  TGI: 1430 nM
[50]
  GI50: 255 nM
  TGI: 1230 nM
[6]
  GI50: 394 nM
  TGI: 1530 nM
[7]
  GI50: 0.271 µM
  TGI: 1480 nM
[8]
  GI50: 315 nM
  TGI: 1180 nM
[9]
  GI50: 174 nM
  TGI: 0.321 µM
[10]
  GI50: 275 nM
  TGI: 1050 nM
[11]
  GI50: 342 nM
  TGI: 1.51 µM
[13]
  GI50: 332 nM
  TGI: 1390 nM
[51]
  GI50: 304 nM
  TGI: 1230 nM
[14]
  GI50: 316 nM
  TGI: 1380 nM
[15]
  GI50: 391 nM
  TGI: 1.87 µM
[16]
  GI50: 394 nM
  TGI: 2050 nM
[17]
  GI50: 281 nM
  TGI: 1.16 µM
[18]
  GI50: 532 nM
  TGI: 1.82 µM
[19]
  GI50: 195 nM
  TGI: 1440 nM
[20]
  GI50: 130 nM
  TGI: 0.477 µM
[21]
  GI50: 254 nM
  TGI: 0.866 µM
[22]
  GI50: 273 nM
  TGI: 0.805 µM
[24]
  GI50: 273 nM
  TGI: 881 nM
[25]
  GI50: 332 nM
  TGI: 1340 nM
[52]
  GI50: 295 nM
  TGI: 1320 nM
[27]
  GI50: 231 nM
  TGI: 1.14 µM
[28]
  GI50: 259 nM
  TGI: 1.14 µM
[53]
  GI50: 268 nM
  TGI: 801 nM
[29]
  GI50: 354 nM
  TGI: 3.47 µM
[30]
  GI50: 174 nM
  TGI: 593 nM
[54]
  GI50: 244 nM
  TGI: 904 nM
[31]
  GI50: 285 nM
  TGI: 1010 nM
[32]
  GI50: 488 nM
  TGI: 1350 nM
[33]
  GI50: 306 nM
  TGI: 1.12 µM
[35]
  GI50: 377 nM
  TGI: 2140 nM
[55]
  GI50: 206 nM
  TGI: 542 nM
[37]
  GI50: 235 nM
  TGI: 736 nM
[39]
  GI50: 346 nM
  TGI: 1350 nM
[40]
  GI50: 262 nM
  TGI: 0.898 µM
[41]
  GI50: 267 nM
  TGI: 0.913 µM
[42]
  GI50: 300 nM
  TGI: 1180 nM
[43]
  GI50: 375 nM
  TGI: 1.57 µM
[44]
  GI50: 470 nM
  TGI: 1.62 µM
[45]
  GI50: 294 nM
  TGI: 1110 nM
[56]
  GI50: 86.3 nM
  TGI: 1270 nM
[57]
  GI50: 288 nM
  TGI: 1060 nM
[46]
  GI50: 292 nM
  TGI: 1.24 µM
[47]
  GI50: 161 nM
  TGI: 0.597 µM
